Source: article PMC6207720, “Identification and antitumor activity of a novel inhibitor of the NIMA-related kinase NEK6” (Scientific Reports, 2018)

Columns and labels:
[1] = target: T1, NEK1 (Homo sapiens, UniProt Q96PY6); experiment: Off-chip Mobility Shift Assay (MSA) profiling, NEK1; format: biochemical; settings: ATP approximating Km
T1 sequence (Q96PY6 1-1258): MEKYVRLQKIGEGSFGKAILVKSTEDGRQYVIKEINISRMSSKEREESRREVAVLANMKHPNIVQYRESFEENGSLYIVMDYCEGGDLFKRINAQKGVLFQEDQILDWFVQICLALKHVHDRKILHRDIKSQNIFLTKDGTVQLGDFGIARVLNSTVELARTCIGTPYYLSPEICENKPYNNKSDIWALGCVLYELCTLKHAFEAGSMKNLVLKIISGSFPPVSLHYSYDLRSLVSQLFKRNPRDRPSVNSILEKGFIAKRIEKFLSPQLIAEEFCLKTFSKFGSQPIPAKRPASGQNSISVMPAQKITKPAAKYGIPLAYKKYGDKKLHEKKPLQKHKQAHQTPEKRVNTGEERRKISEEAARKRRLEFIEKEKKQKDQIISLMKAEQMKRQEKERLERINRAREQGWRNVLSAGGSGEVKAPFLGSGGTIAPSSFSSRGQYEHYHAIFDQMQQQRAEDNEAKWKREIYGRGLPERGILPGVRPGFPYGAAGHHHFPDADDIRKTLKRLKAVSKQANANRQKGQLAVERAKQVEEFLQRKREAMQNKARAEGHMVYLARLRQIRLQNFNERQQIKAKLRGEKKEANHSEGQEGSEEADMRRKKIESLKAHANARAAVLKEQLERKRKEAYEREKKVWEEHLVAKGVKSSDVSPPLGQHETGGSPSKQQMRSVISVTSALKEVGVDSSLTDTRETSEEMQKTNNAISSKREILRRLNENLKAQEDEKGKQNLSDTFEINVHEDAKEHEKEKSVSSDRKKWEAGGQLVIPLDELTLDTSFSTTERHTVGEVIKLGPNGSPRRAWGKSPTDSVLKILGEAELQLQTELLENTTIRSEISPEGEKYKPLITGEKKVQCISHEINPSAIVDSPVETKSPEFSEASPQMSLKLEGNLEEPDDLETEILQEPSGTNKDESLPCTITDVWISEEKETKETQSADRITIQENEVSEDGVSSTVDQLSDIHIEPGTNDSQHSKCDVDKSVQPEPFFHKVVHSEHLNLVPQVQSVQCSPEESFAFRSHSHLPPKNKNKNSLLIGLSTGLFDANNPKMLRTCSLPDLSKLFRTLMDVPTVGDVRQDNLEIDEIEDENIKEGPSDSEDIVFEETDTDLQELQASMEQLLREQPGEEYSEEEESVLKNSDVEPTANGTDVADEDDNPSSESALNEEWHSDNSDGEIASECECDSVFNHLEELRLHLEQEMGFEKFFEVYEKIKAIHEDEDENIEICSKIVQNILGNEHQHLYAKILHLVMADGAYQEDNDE
Method: (§1) Therefore, we decided to evaluate the selectivity of compound 8 against a panel of NEK kinases at 10 µM, using the technique of Off-chip Mobility shift assay. This concentration was chosen according to the guidelines proposed by Knight and Shokat, since the probability of off-target effects increases dramatically above 10 µM[36]. Furthermore, ATP concentration was set to approximate the Km,ATP for each kinase, so that the resulting selectivity profile directly reflects the intrinsic affinities of the inhibitor[37]. […] A major consequence of this substitution may be the redistribution of surface charges at the flexible activation loop resulting in an altered electrostatic potential and ability of NEK6 kinase to interact with other molecules.
(§2) The inhibitory activity of compounds 8 and 21 on NEK6 was also verified with MSA technique (Off-chip Mobility shift assay) (CARNA Biosciences Study ID: CBS170097, CARNA Biosciences, Kobe). […] PKR Inhibitor was used as positive control. For profiling study against NEK kinases (i.e. NEK1, NEK2, NEK6, NEK7, NEK9) (CARNA Biosciences Study ID: CBS170098), 8 was tested at 10 μM and ATP concentration approximating Km for each kinase. Assay condition for kinases are available on “Kinase profiling book” downloading by www.carnabio.com (https://www.carnabio.com/output/pdf/ProfilingProfilingBook_en.pdf).

[2] = system: HCT15 (colon); experiment: Cell-based cytotoxicity assay (ATPlite), HCT15; settings: Homo sapiens, HCT-15, HCT15, 72 h, NA = not active (IC50 greater than 100 µM), read-out: IC50 Values (µM ± SEM)
Description: The following human carcinoma cell lines were used for the study: MDA-MB-231 and MCF-7 (breast cancer; ATCC, Sesto San Giovanni, MI), PEO1 and COV318 (ovarian cancer; ECACC, Salisbury, UK and ATCC), HCT-15 and SW948 (colon cancer; Public Health England, Salisbury, UK and ATCC), NCI-H1975 and NCI-H1299, (lung cancer; ATCC). Cells were routinely tested free of mycoplasma (MycoAlert mycoplasma detection kit, LONZA, Rockland, ME, USA) and validated by STR (Short Tandem Repeat) DNA profiling (BMR Genomics srl, PD). Cells were grown following supplier indication, in a fully humidified atmosphere of 5% CO2/95% air. All the reagents were purchased from Sigma-Aldrich (St. Louis, MO), if not otherwise specified.

[3] = target: T2, NEK6 (Homo sapiens, UniProt Q9HC98); experiment: Off-chip Mobility Shift Assay (MSA), NEK6; format: biochemical
T2 construct: purchased Carna 05-130
T2 sequence (Q9HC98 whole entry): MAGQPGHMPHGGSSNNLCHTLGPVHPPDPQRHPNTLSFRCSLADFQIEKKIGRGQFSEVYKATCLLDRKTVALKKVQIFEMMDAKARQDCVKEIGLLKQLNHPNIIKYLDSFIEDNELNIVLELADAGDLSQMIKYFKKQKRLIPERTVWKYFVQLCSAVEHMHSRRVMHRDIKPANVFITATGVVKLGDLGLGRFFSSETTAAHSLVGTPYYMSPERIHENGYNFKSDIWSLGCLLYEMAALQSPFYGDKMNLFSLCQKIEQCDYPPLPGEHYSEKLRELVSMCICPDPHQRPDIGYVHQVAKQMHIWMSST
Method: as §1, §2

inhibition at 10 µM [1]: 47%
inhibition at 10 µM ([3]; 10 µM, ATP approximating Km): 42.5%
IC50 ([3]; CARNA Biosciences Study CBS170097, ATP 75 µM): 13.8 µM
Structure (SMILES): CC1=C(C#N)C(O)=NC(=O)/C1=C\c1ccc(-c2ccccc2)o1 [Compound 8, (5Z)-2-hydroxy-4-methyl-6-oxo-5-[(5-phenylfuran-2-yl)methylidene]-5,6-dihydropyridine-3-carbonitrile]
IC50 [2]: 98.5 ± 0.5 µM
